We go through nine compounds from patent US20260015350A1, “AZAQUINAZOLINE PAN-KRAS INHIBITORS” (Mirati Therapeutics, Inc., priority 2022, published 2026).

Experiment [1] deals with KRas-mediated phosphorylation of ERK in MKN1 cells. Put plainly: Inhibition of KRas-mediated phosphorylation of ERK (Cisbio HTRF pERK), MKN1 cells. The class given is cell-based. The note with it: Homo sapiens, MKN-1. A digest of the protocol:
(§1)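 Seeding density was 6,000 cells/well; medium RPMI, 10% FBS. Read-out by homogeneous time-resolved fluorescence (pERK) after 4 hours covered at room temperature.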

For experiment [2], the system named is KRas-mediated phosphorylation of ERK in PSN1 cells. Put plainly: Inhibition of KRas-mediated phosphorylation of ERK (Cisbio HTRF pERK), PSN1 cells. The class given is cell-based. The note with it: Homo sapiens. The procedure, abridged:
as §1

Experiment [3] relates to KRas-mediated phosphorylation of ERK in H460 cells. Put plainly: Inhibition of KRas-mediated phosphorylation of ERK (Cisbio HTRF pERK), H460 cells. The class given is cell-based. Conditions: Homo sapiens, NCI-H460, HTRF pERK. The procedure, abridged: (§2)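 Phosphorylated ERK was quantified by HTRF using d2-conjugate and Cryptate antibodies added to lysates for 2 hrs at room temperature.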
On the technique in general: TR-FRET usually uses a lanthanide donor and a delayed reading to cut background.

The subject of experiment [4] is KRas-mediated phosphorylation of ERK in H727 cells. In words: Inhibition of KRas-mediated phosphorylation of ERK (Cisbio HTRF pERK), H727 cells. Conditions: Homo sapiens, NCI-H727, H727 cells; HTRF pERK. The class given is cell-based. The procedure, abridged:
as §2

Experiment [5] deals with KRas-mediated phosphorylation of ERK in HCT116 cells. Put plainly: Inhibition of KRas-mediated phosphorylation of ERK (Cisbio HTRF pERK), HCT116 cells. The note with it: Homo sapiens, HCT-116, HTRF pERK. The class given is cell-based. The procedure, abridged: (§3)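 Min control wells contained 0.2 uM Trametinib, while test compounds ran as 10 doses (3-fold, top 10 uM; 0.8% DMSO final) on cells for 3 hrs. After 40 mins lysis at 4° C, lysates were probed with HTRF antibodies for 2 hrs at room temperature.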

A further experiment has as its target T1, KRas^G12V (Homo sapiens, UniProt P01116, G12V).
T1 construct: Biotinylated KRas (corresponding to amino acids 1-169, produced at Accelegan Inc.); biotin (biotinylated); purchased Accelegan Inc
In words: KRas binding assay (TR-FRET tracer displacement), KRas G12V.

The subject of experiment [6] is KRas-mediated phosphorylation of ERK in A549 cells. Put plainly: Inhibition of KRas-mediated phosphorylation of ERK (Cisbio HTRF pERK), A549 cells. The class given is cell-based. The note with it: Homo sapiens, HTRF pERK. A digest of the protocol: as §3
The subject of experiment [7] is KRas-mediated phosphorylation of ERK in H358 cells. In words: Inhibition of KRas-mediated phosphorylation of ERK (Cisbio HTRF pERK), H358 cells. The class given is cell-based. Conditions: Homo sapiens, NCI-H358, HTRF pERK. The procedure, abridged: as §2
The target in another experiment is T2, KRas^G12D (Homo sapiens, UniProt P01116, G12D).
T2 construct: Biotinylated KRas (corresponding to amino acids 1-169, produced at Accelegan Inc.); biotin (biotinylated); purchased Accelegan Inc
Put plainly: KRas binding assay (TR-FRET tracer displacement), KRas G12D.

The target of another experiment is T3, KRas^G12R (Homo sapiens, UniProt P01116, G12R).
T3 construct: Biotinylated KRas (corresponding to amino acids 1-169, produced at Accelegan Inc.); biotin (biotinylated); purchased Accelegan Inc
In words: KRas binding assay (TR-FRET tracer displacement), KRas G12R.

In experiment [8] the test system is KRas-mediated phosphorylation of ERK in AsPC-1 cells. Put plainly: Inhibition of KRas-mediated phosphorylation of ERK (Cisbio HTRF pERK), AsPC-1 cells. The class given is cell-based. The note with it: Homo sapiens, ASPC1, AsPC-1 cells; HTRF pERK. A digest of the protocol: as §2

T3 sequence (P01116 1-169 isoform P01116-2 G12R): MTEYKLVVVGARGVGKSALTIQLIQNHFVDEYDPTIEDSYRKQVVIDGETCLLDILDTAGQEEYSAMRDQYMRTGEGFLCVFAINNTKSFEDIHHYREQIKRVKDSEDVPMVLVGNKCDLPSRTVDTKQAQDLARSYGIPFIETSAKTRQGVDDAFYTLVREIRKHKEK
T2 sequence (P01116 1-169 isoform P01116-2 G12D): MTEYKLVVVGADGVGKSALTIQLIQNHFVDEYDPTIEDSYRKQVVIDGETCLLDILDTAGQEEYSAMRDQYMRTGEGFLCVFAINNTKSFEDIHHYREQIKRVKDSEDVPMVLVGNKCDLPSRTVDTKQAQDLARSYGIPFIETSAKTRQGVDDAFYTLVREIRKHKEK
T1 sequence (P01116 1-169 isoform P01116-2 G12V): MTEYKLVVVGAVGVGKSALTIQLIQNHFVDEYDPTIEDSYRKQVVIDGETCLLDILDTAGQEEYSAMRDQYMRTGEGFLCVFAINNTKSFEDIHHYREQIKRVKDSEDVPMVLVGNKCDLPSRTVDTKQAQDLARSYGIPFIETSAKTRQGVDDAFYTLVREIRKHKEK

Take `CCc1c(F)ccc2cc(O)cc(-c3ncc4c(N5CC6CCC(COC(=O)N(C)C)(C6)C5)nc(OC[C@@]56CCCN5C[C@H](F)C6)nc4c3F)c12` (stereo partly drawn) [Example 892, (3-(7-(8-ethyl-7-fluoro-3-hydroxynaphthalen-1-yl)-8-fluoro-2-(((2R,7aS)-2-fluorotetrahydro-1H-pyrrolizin-7a(5H)-yl)methoxy)pyrido[4,3-d]pyrimidin-4-yl)-3-azabicyclo[3.2.1]octan-1-yl)methyl dimethylcarbamate]: the IC50 is 174 nM in [1]; above 10000 nM in [2]; 382 nM in experiment [3]; 1630 nM in experiment [4]; 992 nM in experiment [5]; 26 nM at KRas^G12V. Moreover, the IC50 in experiment [6] is 2140 nM; in [7], 960 nM; at KRas^G12D, 120 nM; at KRas^G12R it was 26 nM; in [8], 2180 nM.

In the case of `CCc1c(F)ccc2cc(O)cc(-c3ncc4c(N5CCC[C@@](C)(O)C5)nc(OC[C@@]56CCCN5[C@H](COC(C)C)CC6)nc4c3F)c12` [Example 895, (R)-1-(7-(8-ethyl-7-fluoro-3-hydroxynaphthalen-1-yl)-8-fluoro-2-(((3S,7aS)-3-(isopropoxymethyl)tetrahydro-1H-pyrrolizin-7a(5H)-yl)methoxy)pyrido[4,3-d]pyrimidin-4-yl)-3-methylpiperidin-3-ol], the IC50 is 11 nM in experiment [1]; 905 nM in experiment [2]; 42 nM in experiment [3]; 119 nM in [4]; 79 nM in experiment [5]; below 2 nM on KRas^G12V. Further, the IC50 in experiment [6] was 73 nM; in [7] it was 11 nM; at KRas^G12D, below 2 nM; at KRas^G12R it was below 2 nM; in experiment [8] it was 27 nM.

Consider `CCc1c(F)ccc2cc(O)cc(-c3ncc4c(N5CCOCC6(CNC(=O)N6)C5)nc(OC[C@@]56CCCN5C[C@H](F)C6)nc4c3F)c12` (stereo partly drawn) [Example 898, 10-(7-(8-ethyl-7-fluoro-3-hydroxynaphthalen-1-yl)-8-fluoro-2-(((2R,7aS)-2-fluorotetrahydro-1H-pyrrolizin-7a(5H)-yl)methoxy)pyrido[4,3-d]pyrimidin-4-yl)-7-oxa-1,3,10-triazaspiro[4.6]undecan-2-one], for which the IC50 is 196 nM in experiment [1]; above 10000 nM in [2]; 252 nM in [3]; 836 nM in [4]; 1010 nM in [5]; below 2 nM on KRas^G12V. Further, the IC50 in experiment [6] is 355 nM; in experiment [7], 56 nM; on KRas^G12D it was below 2 nM; at KRas^G12R, below 2 nM; in experiment [8], 250 nM.

For the compound `CCc1c(F)ccc2cc(O)cc(-c3ncc4c(N5CC6CCC(CO)(C5)C6(F)F)nc(OC[C@@]56CCCN5C[C@H](F)C6)nc4c3F)c12` (stereo partly drawn) [Example 901, 4-(4-(8,8-difluoro-1-(hydroxymethyl)-3-azabicyclo[3.2.1]octan-3-yl)-8-fluoro-2-(((2R,7aS)-2-fluorotetrahydro-1H-pyrrolizin-7a(5H)-yl)methoxy)pyrido[4,3-d]pyrimidin-7-yl)-5-ethyl-6-fluoronaphthalen-2-ol], the IC50 is 19 nM in [1]; above 10000 nM in experiment [2]; 368 nM in experiment [3]; 2420 nM in experiment [4]; 1400 nM in experiment [5]; 60 nM on KRas^G12V. Also, the IC50 stood at 873 nM in experiment [6]; 623 nM in experiment [7]; 99 nM on KRas^G12D; 20 nM at KRas^G12R; 2450 nM in experiment [8].

Consider `CCc1c(F)ccc2cc(O)cc(-c3ncc4c(N5CCC[C@@](C)(O)C5)nc(OC[C@@]56CCCN5[C@H](COCC5CCCC5)CC6)nc4c3F)c12` [Example 904, (R)-1-(2-(((3S,7aS)-3-((cyclopentylmethoxy)methyl)tetrahydro-1H-pyrrolizin-7a(5H)-yl)methoxy)-7-(8-ethyl-7-fluoro-3-hydroxynaphthalen-1-yl)-8-fluoropyrido[4,3-d]pyrimidin-4-yl)-3-methylpiperidin-3-ol], for which the IC50 in experiment [1] was 4 nM; in experiment [2] it was 2510 nM; in experiment [3], 53 nM; in [4] it was 121 nM; in experiment [5] it was 167 nM; on KRas^G12V it was below 2 nM. Also, the IC50 in [6] was 112 nM; in experiment [7] it was 21 nM; at KRas^G12D, below 2 nM; on KRas^G12R, below 2 nM; in experiment [8], 30 nM.

Turning to `CCc1c(F)ccc2cc(O)cc(-c3ncc4c(N5CC6CCC(C(=O)N(C)C)(C5)C6(F)F)nc(OC[C@@]56CCCN5C[C@H](F)C6)nc4c3F)c12` (stereo partly drawn) [Example 905, 3-(7-(8-ethyl-7-fluoro-3-hydroxynaphthalen-1-yl)-8-fluoro-2-(((2R,7aS)-2-fluorotetrahydro-1H-pyrrolizin-7a(5H)-yl)methoxy)pyrido[4,3-d]pyrimidin-4-yl)-8,8-difluoro-N,N-dimethyl-3-azabicyclo[3.2.1]octane-1-carboxamide], the half-maximal inhibitory concentration (IC50) in [1] was 1140 nM; in [2], above 10000 nM; in experiment [3] it was 1350 nM; in experiment [4], 7440 nM; in experiment [5] it was 6310 nM; on KRas^G12V it was 394 nM. Besides, the IC50 in [6] was 2610 nM; in experiment [7], 2700 nM; on KRas^G12D it was 297 nM; at KRas^G12R, 94 nM; in [8] it was 4150 nM.

Take `CCc1c(F)ccc2cc(O)cc(-c3ncc4c(N5C[C@H]6CC[C@@](C(=O)NC)(C5)C6(F)F)nc(OC[C@@]56CCCN5C[C@H](F)C6)nc4c3F)c12` [Example 907, (1S,5R)-3-(7-(8-ethyl-7-fluoro-3-hydroxynaphthalen-1-yl)-8-fluoro-2-(((2R,7aS)-2-fluorotetrahydro-1H-pyrrolizin-7a(5H)-yl)methoxy)pyrido[4,3-d]pyrimidin-4-yl)-8,8-difluoro-N-methyl-3-azabicyclo[3.2.1]octane-1-carboxamide]: the IC50 in [1] was 137 nM; in experiment [2] it was above 10000 nM; in experiment [3], 590 nM; in [4], 922 nM; in experiment [5], 1580 nM; on KRas^G12V it was 23 nM. Also, the IC50 in [6] is 827 nM; in [7], 325 nM; on KRas^G12D, 88 nM; on KRas^G12R it was 18 nM; in experiment [8], 2040 nM.

`CCc1c(F)ccc2cc(O)cc(-c3ncc4c(N5CC6CCC(CC(=O)N(C)C)(C6)C5)nc(OC[C@@]56CCCN5C[C@H](F)C6)nc4c3F)c12` (stereo partly drawn) [Example 911, 2-(3-(7-(8-ethyl-7-fluoro-3-hydroxynaphthalen-1-yl)-8-fluoro-2-(((2R,7aS)-2-fluorotetrahydro-1H-pyrrolizin-7a(5H)-yl)methoxy)pyrido[4,3-d]pyrimidin-4-yl)-3-azabicyclo[3.2.1]octan-1-yl)-N,N-dimethylacetamide]: the IC50 was 17 nM in experiment [1]; above 10000 nM in [2]; 108 nM in experiment [3]; 527 nM in [4]; 231 nM in [5]; 3 nM at KRas^G12V. Further, the IC50 amounted to 226 nM in experiment [6]; 114 nM in [7]; 11 nM on KRas^G12D; 10 nM at KRas^G12R; 526 nM in experiment [8].

Consider `C[C@@]1(O)CCCN(c2nc(OC[C@@]34CCCN3C[C@H](F)C4)nc3c(F)c(-c4ccc(F)c5sc(N)c(C#N)c45)ncc23)C1` [Example 912, 2-amino-7-fluoro-4-(8-fluoro-2-(((2R,7aS)-2-fluorotetrahydro-1H-pyrrolizin-7a(5H)-yl)methoxy)-4-((R)-3-hydroxy-3-methylpiperidin-1-yl)pyrido[4,3-d]pyrimidin-7-yl)benzo[b]thiophene-3-carbonitrile], for which the IC50 in [1] is 504 nM; in experiment [2] it was above 10000 nM; in [3] it was 2050 nM; in experiment [4], 3310 nM; in experiment [5], 1830 nM; on KRas^G12V, 69 nM. Also, the half-maximal inhibitory concentration (IC50) in [6] worked out at 2820 nM; in experiment [7] it was 800 nM; on KRas^G12D, 45 nM; at KRas^G12R, 85 nM; in [8], 2310 nM.

The IC50 is the concentration at which inhibition is half-maximal. High values mean weaker potency, low ones greater potency.
